Positions of bridges follow the written chain, without caps; N, C: chain ends. Non-standard residues stand in square brackets, D forms with d. Residues, ends and D or L forms follow the SMILES beside them. ξ: configuration not given here. *: point of attachment. Phe(4-COOH) = N[C@@H](Cc1ccc(C(=O)O)cc1)C(=O)O; Bip = N[C@@H](Cc1ccc(-c2ccccc2)cc1)C(=O)O; Phe(3-Cl) = N[C@@H](Cc1cccc(Cl)c1)C(=O)O; Phe(3-OMe) = COc1cccc(C[C@H](N)C(=O)O)c1; Phe(3-Me) = Cc1cccc(C[C@H](N)C(=O)O)c1; NMeF = CN[C@@H](Cc1ccccc1)C(=O)O; 4Pal = N[C@@H](Cc1ccncc1)C(=O)O; dHyp = O=C(O)[C@H]1C[C@H](O)CN1; Thr(3ξ) = CC(O)[C@H](N)C(=O)O; Carboxymethyl = O=C(O)C*; NMeA = CN[C@@H](C)C(=O)O; Ac3c = NC1(C(=O)O)CC1; Sar = CNCC(=O)O
target: T1, human PD-1 (Jurkat-PD-1 cells) / PE-labeled human PD-L1-Ig (Homo sapiens, UniProt Q15116); assay: Jurkat-PD-1 Cell Binding High-Content Screening Assay (CBA); Jurkat hPD1-PDL1 assay; details: Jurkat cell line over-expressing human PD-1; PE-labeled PD-L1-Ig 20 nM final; compound incubated 2 hours at 37° C.; read-out: Jurkat HPD1-PDL1 IC50
T1 construct: expressed in transfected cells; host or cells: Jurkat cell line over-expressing human PD-1
T1 sequence (Q15116 25-288): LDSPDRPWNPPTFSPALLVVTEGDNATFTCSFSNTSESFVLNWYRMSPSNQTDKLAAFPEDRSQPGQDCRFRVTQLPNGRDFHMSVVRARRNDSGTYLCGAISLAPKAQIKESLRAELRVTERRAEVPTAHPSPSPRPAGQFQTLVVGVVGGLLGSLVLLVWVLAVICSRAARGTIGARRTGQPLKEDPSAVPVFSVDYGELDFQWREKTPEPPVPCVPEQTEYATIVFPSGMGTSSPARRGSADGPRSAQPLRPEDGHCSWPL
Protocol: The ability of the compounds of formula (I) to bind to PD-1 was investigated using a Jurkat-PD-1 Cell Binding High-Content Screening Assay.
Jurkat-PD-1 Cell Binding High-Content Screening Assay (CBA)
Phycoerythrin (PE) was covalently linked to the Ig epitope tag of human PD-L1-Ig and fluorescently-labeled PD-L1-Ig was used for binding studies with a Jurkat cell line over-expressing human PD-1 (Jurkat-PD-1). Briefly, 8×10^3 Jurkat-hPD-1 cells were seeded into 384 well plates in 20 μL of DMEM supplemented with 10% fetal calf serum. 100 nL of compound was added to cells followed by incubation at 37° C. for 2 hours. Then, 5 μL of PE-labeled PD-L1-Ig (20 nM final), diluted in DMEM supplemented with 10% fetal calf serum. […] Data was collected and processed using a Cell Insight NXT High Content Imager and associated software.

SMILES	IC50 [nM]
CC(C)C[C@@H]1NC(=O)[C@H](Cc2c[nH]c3ccccc23)NC(=O)[C@H](CC(=O)O)NC(=O)[C@H](Cc2ccc(O)cc2)NC(=O)[C@H](Cc2ccccc2)NC(=O)CSC[C@@H](C(=O)N[C@@H](C)C(N)=O)NC(=O)[C@H]([C@@H](C)O)NC(=O)[C@H](C(C)C)NC(=O)[C@H](CC(C)C)NC(=O)[C@H](CC(N)=O)NC(=O)[C@H]2CCCN2C(=O)[C@H](C)N(C)C(=O)[C@H](C(C)C)NC(=O)[C@H](Cc2ccc(-c3ccccc3)cc2)NC1=O [Example 1050] ({CH2CO}-FYDWL[Bip]V[NMeA][dP]NLVTCA-NH2; thioether N-14)	110
CC(C)C[C@@H]1NC(=O)[C@H](Cc2c[nH]c3ccccc23)NC(=O)[C@H](CC(=O)O)NC(=O)[C@H](Cc2ccc(O)cc2)NC(=O)[C@H](Cc2ccccc2)NC(=O)CSC[C@@H](C(=O)NCC(N)=O)NC(=O)[C@H](CO)NC(=O)[C@H](C(C)C)NC(=O)[C@H](CC(C)C)NC(=O)[C@H](CCCCN)NC(=O)CN(C)C(=O)[C@H](C)N(C)C(=O)[C@H](C(C)C)NC(=O)[C@H](Cc2ccc(-c3ccccc3)cc2)NC1=O [Example 1051] ({CH2CO}-FYDWL[Bip]V[NMeA][Sar]KLVSCG-NH2; thioether N-14)	110
CC(C)C[C@@H]1NC(=O)[C@H](Cc2c[nH]c3ccccc23)NC(=O)[C@H](CC(=O)O)NC(=O)[C@H](Cc2ccc(OCC(=O)O)cc2)NC(=O)[C@H](Cc2cnc[nH]2)NC(=O)CSC[C@@H](C(=O)N[C@@H](C)C(N)=O)NC(=O)[C@H](CO)NC(=O)[C@H](C(C)C)NC(=O)[C@H](CC(C)C)NC(=O)[C@H](CC(N)=O)NC(=O)[C@H]2CCCN2C(=O)[C@H](C)N(C)C(=O)[C@H](C(C)C)NC(=O)[C@H](Cc2ccc(-c3ccccc3)cc2)NC1=O [Example 1052] ({CH2CO}-HY(Carboxymethyl)DWL[Bip]V[NMeA][dP]NLVSCA-NH2; thioether N-14)	120
Cc1cccc(C[C@@H]2NC(=O)[C@H](CC(=O)O)NC(=O)[C@H](Cc3ccc(O)cc3)NC(=O)[C@H](Cc3ccccc3)NC(=O)CSC[C@@H](C(=O)N[C@@H](C)C(N)=O)NC(=O)[C@H](CO)NC(=O)[C@H](C(C)C)NC(=O)[C@H](CC(C)C)NC(=O)[C@H](CC(N)=O)NC(=O)CN(C)C(=O)[C@H](C)N(C)C(=O)[C@H](C(C)C)NC(=O)[C@H](Cc3ccc(-c4ccccc4)cc3)NC(=O)[C@H](CC(C)C)NC2=O)c1 [Example 1053] ({CH2CO}-FYD[Phe(3-Me)]L[Bip]V[NMeA][Sar]NLVSCA-NH2; thioether N-14)	120
CC(C)C[C@@H]1NC(=O)[C@H](Cc2c[nH]c3ccccc23)NC(=O)[C@H](CC(=O)O)NC(=O)[C@H](Cc2ccc(O)cc2)NC(=O)[C@H](Cc2ccccc2)NC(=O)CSC[C@@H](C(=O)N[C@@H](C)C(N)=O)NC(=O)[C@H](CO)NC(=O)[C@H](C(C)C)NC(=O)[C@H](CC(C)C)NC(=O)[C@H](CC(N)=O)NC(=O)[C@H]2C[C@H](O)CN2C(=O)[C@H](C)N(C)C(=O)[C@H](C(C)C)NC(=O)[C@H](Cc2ccc(-c3ccccc3)cc2)NC1=O [Example 1054] ({CH2CO}-FYDWL[Bip]V[NMeA][dHyp]NLVSCA-NH2; thioether N-14)	120
COc1cccc(C[C@@H]2NC(=O)[C@H](Cc3ccccc3)NC(=O)CSC[C@@H](C(=O)N[C@@H](C)C(N)=O)NC(=O)[C@H](CO)NC(=O)[C@H](C(C)C)NC(=O)[C@H](CC(C)C)NC(=O)[C@H](CC(N)=O)NC(=O)[C@H]3CCCN3C(=O)[C@H](C)N(C)C(=O)[C@H](C(C)C)NC(=O)[C@H](Cc3ccc(-c4ccccc4)cc3)NC(=O)[C@H](CC(C)C)NC(=O)[C@H](Cc3c[nH]c4ccccc34)NC(=O)[C@H](CC(=O)O)NC2=O)c1 [Example 1055] ({CH2CO}-F[Phe(3-OMe)]DWL[Bip]V[NMeA][dP]NLVSCA-NH2; thioether N-14)	120
CC(C)C[C@@H]1NC(=O)[C@H](Cc2c[nH]c3ccccc23)NC(=O)[C@H](CC(=O)O)NC(=O)[C@H](Cc2ccc(O)cc2)NC(=O)[C@H](Cc2ccccc2)NC(=O)CSC[C@@H](C(=O)NC2(C(N)=O)CC2)NC(=O)[C@H](CO)NC(=O)[C@H](C(C)C)NC(=O)[C@H](CC(C)C)NC(=O)[C@H](CC(N)=O)NC(=O)CN(C)C(=O)[C@H](C)N(C)C(=O)[C@H](C(C)C)NC(=O)[C@H](Cc2ccc(-c3ccccc3)cc2)NC1=O [Example 1056] ({CH2CO}-FYDWL[Bip]V[NMeA][Sar]NLVSC[Ac3c]-NH2; thioether N-14)	130

Next, values leading:

IC50 [nM]	SMILES
130	CC(C)C[C@@H]1NC(=O)[C@H](CCCNC(=N)N)NC(=O)[C@H](Cc2ccccc2)N(C)C(=O)[C@H](C)N(C)C(=O)[C@H](CCCNC(=N)N)NC(=O)[C@H](Cc2ccc(-c3ccccc3)cc2)NC(=O)[C@H](C(C)C)NC(=O)[C@H](Cc2c[nH]c3ccccc23)NC(=O)[C@H](CC(=O)O)NC(=O)[C@H](Cc2ccc(O)cc2)NC(=O)[C@H](CCC(N)=O)NC(=O)CSC[C@@H](C(=O)NCC(N)=O)NC(=O)[C@H](CO)NC(=O)[C@H](C(C)C)NC1=O [Example 1057] ({CH2CO}-QYDWV[Bip]R[NMeA][NMeF]RLVSCG-NH2; thioether N-14)
130	CC(C)C[C@@H]1NC(=O)[C@H](CCCNC(=N)N)NC(=O)[C@H](Cc2ccccc2)N(C)C(=O)[C@H](C)N(C)C(=O)[C@H](CCCNC(=N)N)NC(=O)[C@H](Cc2ccc(-c3ccccc3)cc2)NC(=O)[C@H](C(C)C)NC(=O)[C@H](Cc2c[nH]c3ccccc23)NC(=O)[C@H](CC(=O)O)NC(=O)[C@H](Cc2ccc(O)cc2)NC(=O)[C@H](Cc2cnc[nH]2)NC(=O)CSC[C@@H](C(=O)NCC(N)=O)NC(=O)[C@H](CO)NC(=O)[C@H](C(C)C)NC1=O [Example 1058] ({CH2CO}-HYDWV[Bip]R[NMeA][NMeF]RLVSCG-NH2; thioether N-14)
140	CC(C)C[C@@H]1NC(=O)[C@H](Cc2c[nH]c3ccccc23)NC(=O)[C@H](CC(=O)O)NC(=O)[C@H](Cc2ccc(C(=O)O)cc2)NC(=O)[C@H](CC(N)=O)NC(=O)CSC[C@@H](C(=O)N[C@@H](C)C(N)=O)NC(=O)[C@H](CO)NC(=O)[C@H](C(C)C)NC(=O)[C@H](CC(C)C)NC(=O)[C@H](CC(N)=O)NC(=O)[C@H]2CCCN2C(=O)[C@H](C)N(C)C(=O)[C@H](C(C)C)NC(=O)[C@H](Cc2ccc(-c3ccccc3)cc2)NC1=O [Example 1059] ({CH2CO}-N[Phe(4-COOH)]DWL[Bip]V[NMeA][dP]NLVSCA-NH2; thioether N-14)
140	CC(C)C[C@@H]1NC(=O)[C@H](Cc2c[nH]c3ccccc23)NC(=O)[C@H](CC(=O)O)NC(=O)[C@H](Cc2ccc(O)cc2)NC(=O)[C@H](Cc2ccccc2)NC(=O)CSC[C@@H](C(=O)N[C@@H](C)C(N)=O)NC(=O)[C@H](CO)NC(=O)[C@H](C(C)C)NC(=O)[C@H](CC(C)C)NC(=O)[C@H](CC(N)=O)NC(=O)[C@H](Cc2ccccc2)N(C)C(=O)[C@H](C)N(C)C(=O)[C@H](C(C)C)NC(=O)[C@H](Cc2ccc(-c3ccccc3)cc2)NC1=O [Example 1060] ({CH2CO}-FYDWL[Bip]V[NMeA][NMeF]NLVSCA-NH2; thioether N-14)
140	CC(C)C[C@@H]1NC(=O)[C@H](Cc2cccc(Cl)c2)NC(=O)[C@H](CC(=O)O)NC(=O)[C@H](Cc2ccc(O)cc2)NC(=O)[C@H](Cc2ccccc2)NC(=O)CSC[C@@H](C(=O)N[C@@H](C)C(N)=O)NC(=O)[C@H](CO)NC(=O)[C@H](C(C)C)NC(=O)[C@H](CC(C)C)NC(=O)[C@H](CC(N)=O)NC(=O)CN(C)C(=O)[C@H](C)N(C)C(=O)[C@H](C(C)C)NC(=O)[C@H](Cc2ccc(-c3ccccc3)cc2)NC1=O [Example 1061] ({CH2CO}-FYD[Phe(3-Cl)]L[Bip]V[NMeA][Sar]NLVSCA-NH2; thioether N-14)
160	CC(C)C[C@@H]1NC(=O)[C@H](CCCNC(=N)N)NC(=O)[C@H](Cc2ccccc2)N(C)C(=O)[C@H](C)N(C)C(=O)[C@H](CCCNC(=N)N)NC(=O)[C@H](Cc2ccc(-c3ccccc3)cc2)NC(=O)[C@H](C(C)C)NC(=O)[C@H](Cc2c[nH]c3ccccc23)NC(=O)[C@H](CC(=O)O)NC(=O)[C@H](Cc2ccc(O)cc2)NC(=O)[C@H](CO)NC(=O)CSC[C@@H](C(=O)NCC(N)=O)NC(=O)[C@H](CO)NC(=O)[C@H](C(C)C)NC1=O [Example 1062] ({CH2CO}-SYDWV[Bip]R[NMeA][NMeF]RLVSCG-NH2; thioether N-14)
160	CC(C)C[C@@H]1NC(=O)[C@H](CCCNC(=N)N)NC(=O)[C@H](Cc2ccccc2)N(C)C(=O)[C@H](C)N(C)C(=O)[C@H](CCCNC(=N)N)NC(=O)[C@H](Cc2ccc(-c3ccccc3)cc2)NC(=O)[C@H](C(C)C)NC(=O)[C@H](Cc2c[nH]c3ccccc23)NC(=O)[C@H](CC(=O)O)NC(=O)[C@H](Cc2ccc(O)cc2)NC(=O)[C@H](Cc2ccccc2)NC(=O)CSC[C@@H](C(=O)N[C@H](C(N)=O)C(C)O)NC(=O)[C@H](CO)NC(=O)[C@H](C(C)C)NC1=O (stereo partly drawn) [Example 1063] ({CH2CO}-FYDWV[Bip]R[NMeA][NMeF]RLVSC[Thr(3ξ)]-NH2; thioether N-14)
160	CC(C)C[C@@H]1NC(=O)[C@H](Cc2c[nH]c3ccccc23)NC(=O)[C@H](CC(=O)O)NC(=O)[C@H](Cc2ccncc2)NC(=O)[C@H](Cc2ccccc2)NC(=O)CSC[C@@H](C(=O)N[C@@H](C)C(N)=O)NC(=O)[C@H](CO)NC(=O)[C@H](C(C)C)NC(=O)[C@H](CC(C)C)NC(=O)[C@H](CC(N)=O)NC(=O)CN(C)C(=O)[C@H](C)N(C)C(=O)[C@H](C(C)C)NC(=O)[C@H](Cc2ccc(-c3ccccc3)cc2)NC1=O [Example 1064] ({CH2CO}-F[4Pal]DWL[Bip]V[NMeA][Sar]NLVSCA-NH2; thioether N-14)

Source: patent publication US20240360178A1, “MACROCYCLIC IMMUNOMODULATORS” (Bristol-Myers Squibb Company, priority 2021, published 2024)
